According to patent US8574563B2 (Bristol-Myers Squibb Company, priority 2006, dated 2013):

Tested on: HCV 1b-377-neo replicon cells
Assay: HCV replicon assay, HCV 1b-377-neo replicon cells (1b FRET)
Type: cell-based, Hepatitis C virus genotype 1b
Settings: HCV 1b replicon, FRET; read-out: 1b Fret (EC50 μM)
Method: An HCV Replion assay was utilized in the present disclosure, and was prepared, conducted and validated as described in commonly owned PCT/US2006/022197 and in O'Boyle et. al. Antimicrob Agents Chemother. 2005 April; 49(4):1346-53.
HCV 1b-377-neo replicon cells were used to test the currently described compound series as well as cells resistant to compound A due to a Y2065H mutation in NS5A (described in application PCT/US2006/022197). The compounds tested were determined to have more than 10-fold less inhibitory activity on cells resistant to compound A than wild-type cells indicating a related mechanism of action between the two compound series. Thus, the compounds of the present disclosure can be effective to inhibit the function of the HCV NS5A protein and are understood to be as effective in combinations as previously described in application PCT/US2006/022197 and commonly owned WO/04014852. Further, the compounds of the present disclosure can be effective against the HCV 1b genotype. It should also be understood that the compounds of the present disclosure can inhibit multiple genotypes of HCV. […] In one embodiment compounds of the present disclosure are active against the 1a, 1b, 2a, 2b, 3a, 4a, and 5a genotypes.

SMILES | EC50 [nM]
CC(C)[C@H](NS(=O)(=O)C(C)C)C(=O)N1CCC[C@H]1c1ncc(-c2ccc(-c3ccc(-c4cnc([C@@H]5CCCN5C(=O)[C@@H](NS(=O)(=O)N(C)C)C(C)C)[nH]4)cc3)cc2)[nH]1 [Example F65, N—((S)-1-((S)-2-(5-(4′-(2-((S)-1-((S)-2-(N,N-dimethylsulfamoylamino)-3-methylbutanoyl)pyrrolidin-2-yl)-1H-imidazol-5-yl)biphenyl-4-yl)-1H-imidazol-2-yl)pyrrolidin-1-yl)-3-methyl-1-oxobutan-2-yl)propane-2-sulfonamide] | 210

Same assay, conditions: HCV 1b-377-neo replicon cells; HCV 1b genotype

SMILES | EC50 range against HCV 1b (Table 2, Range)
COC(=O)N[C@H](C(=O)N1CCC[C@H]1c1ncc(-c2ccc(-c3ccc(-c4cnc([C@@H]5CCCN5C(=O)[C@@H](NC(=O)OC)C5CC5)[nH]4)cc3C(=O)O)cc2)[nH]1)C1CC1 [Example M116, 4,4′-bis(2-((2S)-1-((2S)-2-cyclopropyl-2-((methoxycarbonyl)amino)acetyl)-2-pyrrolidinyl)-1H-imidazol-5-yl)-2-biphenylcarboxylic acid] | >A

Same assay, conditions: HCV 1b-377-neo replicon cells; HCV 1b genotype; read-out: EC50 range against HCV 1b (Table 2, Range)

SMILES | EC50 [nM]
COC(=O)NC(C(=O)N1CCCC1c1ncc(-c2ccc(-c3ccc(-c4cnc(C5CCCN5C(=O)C(c5csc6ccccc56)N(C)C)[nH]4)cc3)cc2)[nH]1)c1ccccc1 [Example 84-50, methyl ((1R)-2-((2S)-2-(5-(4′-(2-((2S)-1-(1-benzothiophen-3-yl(dimethylamino)acetyl)-2-pyrrolidinyl)-1H-imidazol-5-yl)-4-biphenylyl)-1H-imidazol-2-yl)-1-pyrrolidinyl)-2-oxo-1-phenylethyl)carbamate] | 0.001 to 0.999
CC(C)[C@H](NS(=O)(=O)C(C)C)C(=O)N1CCC[C@H]1c1ncc(-c2ccc(-c3ccc(-c4cnc([C@@H]5CCCN5C(=O)[C@@H](NS(=O)(=O)N(C)C)C(C)C)[nH]4)cc3)cc2)[nH]1 [Example F65, N—((S)-1-((S)-2-(5-(4′-(2-((S)-1-((S)-2-(N,N-dimethylsulfamoylamino)-3-methylbutanoyl)pyrrolidin-2-yl)-1H-imidazol-5-yl)biphenyl-4-yl)-1H-imidazol-2-yl)pyrrolidin-1-yl)-3-methyl-1-oxobutan-2-yl)propane-2-sulfonamide] | 100 to 999
COC(=O)N[C@@H](C(=O)N1CCC[C@H]1c1ncc(-c2ccc(-c3ccc(-c4cnc([C@@H]5CCCN5C(=O)[C@H](C)NC(C)=O)[nH]4)cc3)cc2)[nH]1)c1ccccc1 [Example 54, methyl ((1R)-2-((2S)-2-(5-(4′-(2-((2S)-1-(N-acetyl-L-ananyl)-2-pyrrolidinyl)-1H-imidazol-5-yl)-4-biphenylyl)-1H-imidazol-2-yl)-1-pyrrolidinyl)-2-oxo-1-phenylethyl)carbamate] | 0.001 to 0.999

Same assay, conditions: Hepatitis C virus, HCV 1b-377-neo replicon cells; HCV 1b genotype; read-out: EC50 range against HCV 1b (Table 2, Range)

SMILES | EC50 [nM]
CN(C)[C@@H](C(=O)N1CCC[C@H]1c1ncc(-c2ccc(-c3ccc(-c4cnc([C@@H]5CCCN5C(=O)[C@@H]5CCCO5)[nH]4)cc3)cc2)[nH]1)c1ccccc1 [Example 87, (1R)-N,N-dimethyl-2-oxo-1-phenyl-2-((2S)-2-(5-(4′-(2-((2S)-1-((2S)-tetrahydro-2-furanylcarbonyl)-2-pyrrolidinyl)-1H-imidazol-5-yl)-4-biphenylyl)-1H-imidazol-2-yl)-1-pyrrolidinyl)ethanamine] | 0.001 to 0.999
COC(=O)N[C@@H](C)C(=O)N1CCC[C@H]1c1ncc(-c2ccc(-c3ccc(-c4cnc([C@@H]5CCCN5C(=O)C(c5ccccc5)N5C6CCC5CC6)[nH]4)cc3)cc2)[nH]1 (stereo partly drawn) [Example M97, methyl ((1S)-2-((2S)-2-(5-(4′-(2-((2S)-1-(7-azabicyclo[2.2.1]hept-7-yl(phenyl)acetyl)-2-pyrrolidinyl)-1H-imidazol-5-yl)-4-biphenylyl)-1H-imidazol-2-yl)-1-pyrrolidinyl)-1-methyl-2-oxoethyl)carbamate] | 1 to 99
COC(=O)N[C@@H](C)C(=O)N1[C@@H]2C[C@@H]2C[C@H]1c1ncc(-c2ccc(-c3ccc(-c4cnc([C@@H]5C[C@H]6C[C@H]6N5C(=O)[C@H](C)NC(=O)OC)[nH]4)cc3)cc2)[nH]1 [Example M132, methyl ((1S)-2-((1R,3S,5R)-3-(4-(4′-(2-((1R,3S,5R)-2-(N-(methoxycarbonyl)-L-alanyl)-2-azabicyclo[3.1.0]hex-3-yl)-1H-imidazol-4-yl)-4-biphenylyl)-1H-imidazol-2-yl)-2-azabicyclo[3.1.0]hex-2-yl)-1-methyl-2-oxoethyl)carbamate] | 0.001 to 0.999
COCC[C@H](NC(=O)OC)C(=O)N1CCC[C@H]1c1ncc(-c2ccc(-c3ccc(-c4cnc([C@@H]5CCCN5C(=O)[C@H](CCOC)NC(=O)OC)[nH]4)cc3)cc2)[nH]1 [cj-156, methyl ((1S)-3-methoxy-1-(((2S)-2-(5-(4′-(2-((2S)-1-(N-(methoxycarbonyl)-O-methyl-L-homoseryl)-2-pyrrolidinyl)-1H-imidazol-5-yl)-4-biphenylyl)-1H-imidazol-2-yl)-1-pyrrolidinyl)carbonyl)propyl)carbamate] | 0.001 to 0.999
CCN(CC)[C@@H](C(=O)N1CCC[C@H]1c1ncc(-c2ccc(-c3ccc(-c4cnc([C@@H]5CCCN5C(=O)[C@@H](c5ccccc5)N(CC)CC)[nH]4)cc3)cc2)[nH]1)c1ccccc1 [Example 21, (1R,1′R)-2,2′-(4,4′-biphenyldiylbis(1H-imidazole-5,2-diyl(2S)-2,1-pyrrolidinediyl))bis(N,N-diethyl-2-oxo-1-phenylethanamine)] | 0.001 to 0.999
O=C(N[C@@H](C(=O)N1CCC[C@H]1c1ncc(-c2ccc(-c3ccc(-c4cnc([C@@H]5CCCN5C(=O)[C@@H]5CCCO5)[nH]4)cc3)cc2)[nH]1)c1ccccc1)C1CCOCC1 [Example 115, N-((1R)-2-oxo-1-phenyl-2-((2S)-2-(5-(4′-(2-((2S)-1-((2S)-tetrahydro-2-furanylcarbonyl)-2-pyrrolidinyl)-1H-imidazol-5-yl)-4-biphenylyl)-1H-imidazol-2-yl)-1-pyrrolidinyl)ethyl) tetrahydro-2H-pyran-4-carboxamide] | 0.001 to 0.999
COC(=O)N[C@H](C(=O)N1CCC[C@H]1c1ncc(-c2ccc(-c3ccc(-c4cnc([C@@H]5CCCN5C(=O)[C@H](NC5=NCCN5)C(C)C)[nH]4)cc3)cc2)[nH]1)C(C)C [cj-11n, methyl ((1S)-1-(((2S)-2-(5-(4′-(2-((2S)-1-(N-(4,5-dihydro-1H-imidazol-2-yl)-D-valyl)-2-pyrrolidinyl)-1H-imidazol-5-yl)-4-biphenylyl)-1H-imidazol-2-yl)-1-pyrrolidinyl)carbonyl)-2-methylpropyl)carbamate] | 1 to 99
CN(C)[C@@H](C(=O)N1CCC[C@H]1c1ncc(-c2ccc(-c3ncc(-c4cnc([C@@H]5CCCN5C(=O)[C@@H](c5ccccc5)N(C)C)[nH]4)cn3)cc2)[nH]1)c1ccccc1 [Example 152j-1, (1R)-2-((2S)-2-(5-(2-(4-(2-((2S)-1-((2R)-2-(dimethylamino)-2-phenylacetyl)-2-pyrrolidinyl)-1H-imidazol-5-yl)phenyl)-5-pyrimidinyl)-1H-imidazol-2-yl)-1-pyrrolidinyl)-N,N-dimethyl-2-oxo-1-phenylethanamine] | 1 to 99
CCN(CC)[C@H](C)C(=O)N1CCC[C@H]1c1ncc(-c2ccc(-c3ccc(-c4cnc([C@@H]5CCCN5C(=O)[C@@H](c5ccccc5)N(CC)CC)[nH]4)cc3)cc2)[nH]1 [Example M35, (2R)-1-((2S)-2-(5-(4′-(2-((2S)-1-((2R)-2-(diethylamino)-2-phenylacetyl)-2-pyrrolidinyl)-1H-imidazol-5-yl)-4-biphenylyl)-1H-imidazol-2-yl)-1-pyrrolidinyl)-N,N-diethyl-1-oxo-2-propanamine] | 1 to 99
O=C(N1CCC[C@H]1c1ncc(-c2ccc(-c3ccc(-c4cnc([C@@H]5CCCN5C(=O)C5(O)CC5)[nH]4)cc3)cc2)[nH]1)C1(O)CC1 [Example 24, 1,1′-(4,4′-biphenyldiylbis(1H-imidazole-5,2-diyl(2S)-2,1-pyrrolidinediylcarbonyl))dicyclopropanol] | 1 to 99
CC(=O)N[C@H](C(=O)N1CCC[C@H]1c1nc(-c2ccc(-c3ccc(-c4c[nH]c([C@@H]5CCCN5C(=O)[C@@H](NC(C)=O)C(C)C)n4)cc3)cc2)c[nH]1)C(C)C [Example F60, N-((1S)-1-(((2S)-2-(4-(4′-(2-((2S)-1-((2S)-2-acetamido-3-methylbutanoyl)-2-pyrrolidinyl)-1H-imidazol-4-yl)-4-biphenylyl)-1H-imidazol-2-yl)-1-pyrrolidinyl)carbonyl)-2-methylpropyl)acetamide] | 0.001 to 0.999
CC(=O)OC(C(=O)N1CCC[C@H]1c1ncc(-c2ccc(-c3ccc(-c4cnc([C@@H]5CCCN5C(=O)[C@@H](c5ccccc5)N5CCCCC5)[nH]4)cc3)cc2)[nH]1)c1ccccc1 (stereo in doubt) [Example 107-21, (1R)-2-oxo-1-phenyl-2-((2S)-2-(5-(4′-(2-((2S)-1-((2R)-2-phenyl-2-(1-piperidinyl)acetyl)-2-pyrrolidinyl)-1H-imidazol-5-yl)-4-biphenylyl)-1H-imidazol-2-yl)-1-pyrrolidinyl)ethyl acetate] | 0.001 to 0.999
CC[C@@H](C(=O)N1CCC[C@H]1c1ncc(-c2ccc(-c3ccc(-c4cnc([C@@H]5CCCN5C(=O)[C@@H](NC(=O)OC)C(C)C)[nH]4)cc3)cc2)[nH]1)N(CC)CC [Example M86, methyl ((1S)-1-(((2S)-2-(5-(4′-(2-((2S)-1-((2S)-2-(diethylamino)butanoyl)-2-pyrrolidinyl)-1H-imidazol-5-yl)-4-biphenylyl)-1H-imidazol-2-yl)-1-pyrrolidinyl)carbonyl)-2-methylpropyl)carbamate] | 1 to 99
CCN(CC)[C@@H](C(=O)N1CCC[C@H]1c1ncc(-c2ccc(-c3ccc(-c4cnc([C@@H]5CCCN5C(=O)[C@H](Cn5cccn5)NC(=O)OC)[nH]4)cc3)cc2)[nH]1)c1ccccc1 [cj-36, methyl ((1S)-2-((2S)-2-(5-(4′-(2-((2S)-1-((2R)-2-(diethylamino)-2-phenylacetyl)-2-pyrrolidinyl)-1H-imidazol-5-yl)-4-biphenylyl)-1H-imidazol-2-yl)-1-pyrrolidinyl)-2-oxo-1-(1H-pyrazol-1-ylmethyl)ethyl)carbamate] | 0.001 to 0.999
